In ChEMBL document CHEMBL4376898, “Enhanced Activity against Multidrug-Resistant Bacteria through Coapplication of an Analogue of Tachyplesin I and an Inhibitor of the QseC/B Signaling Pathway” (J Med Chem, 2020):
Converted amounts (≈) assume the structure as drawn. Values belong to the molecule of their own block, whether it stands above or below them. The source made the active and inactive calls. The rule behind the calls is not given here.

Key:
Klebsiella pneumoniae [1] = experiment: Antimicrobial activity against Klebsiella pneumoniae BAA 2470 assessed as inhibition of visible growth incubated for 18 hrs; type: functional
Escherichia coli [2] = experiment: Antimicrobial activity against Escherichia coli K-12 assessed as inhibition of visible growth incubated for 18 hrs; type: functional
Escherichia coli [3] = experiment: Antimicrobial activity against Escherichia coli BAA 2469 assessed as inhibition of visible growth incubated for 18 hrs; type: functional
Enterobacter cloacae = experiment: Antimicrobial activity against Enterobacter cloacae BAA 1143 assessed as inhibition of visible growth incubated for 18 hrs; type: functional
Staphylococcus aureus [4] = experiment: Antimicrobial activity against Staphylococcus aureus BAA 44 assessed as inhibition of visible growth incubated for 18 hrs; type: functional
Erythrocyte [5] = experiment: Toxicity in human erythrocytes assessed as induction of hemolysis incubated for 1 hr by visual absorption spectroscopy; type: cell-based
Staphylococcus aureus [6] = experiment: Antimicrobial activity against Staphylococcus aureus BAA 41 assessed as inhibition of visible growth incubated for 18 hrs; type: functional
Erythrocyte [7] = experiment: Toxicity in human erythrocytes assessed as induction of hemolysis incubated for 1 hr by spectrometry; type: cell-based
[8] = Stability in human plasma assessed as parent compound degradation at […] measured after 6 hrs by HPLC analysis; type: ADME, cell-free; settings: read-out: Drug degradation
Klebsiella pneumoniae [9] = experiment: Antimicrobial activity against Klebsiella pneumoniae BAA 1144 assessed as inhibition of visible growth incubated for 18 hrs; type: functional
L02 [10] = experiment: Cytotoxicity in human L02 cells assessed as reduction in cell viability at >64 ug/ml incubated for 48 hrs by resazurin dye based assay; settings: l02, 48 h
[11] = Bactericidal activity against Lysobacter enzymogenes YC36; type: functional
L02 [12] = experiment: Cytotoxicity in human L02 cells assessed as reduction in cell viability at <32 ug/ml incubated for 48 hrs by resazurin dye based assay; settings: l02, 48 h
Lysobacter enzymogenes [13] = experiment: Antimicrobial activity against Lysobacter enzymogenes YC36 assessed as inhibition of visible growth incubated for 18 hrs; type: functional
Escherichia coli [14] = experiment: Bactericidal activity against Escherichia coli K-12; type: functional
Lysobacter enzymogenes [15] = experiment: Bactericidal activity against Lysobacter enzymogenes YC36 at 4 ug/ml; type: functional
[16] = Antimicrobial activity against Lysobacter enzymogenes YC36 assessed as inhibition of visible growth measured after 7th generation exposure to compound by continuous repeated transfer assay relative to before passage; type: functional
[17] = Stability in human plasma assessed as parent compound remaining at […] measured after 2 hrs by HPLC analysis; type: ADME, cell-free; settings: read-out: Stability
Shigella flexneri = experiment: Bactericidal activity against Shigella flexneri ATCC 29903; type: functional
Pseudomonas aeruginosa [18] = experiment: Antimicrobial activity against Pseudomonas aeruginosa ATCC 27853 assessed as inhibition of visible growth incubated for 18 hrs; type: functional
Pseudomonas aeruginosa [19] = experiment: Bactericidal activity against Pseudomonas aeruginosa ATCC 27853; type: functional
Acinetobacter baumannii [20] = experiment: Bactericidal activity against Acinetobacter baumannii ATCC 19606; type: functional; settings: ATCC 19606 = CIP 70.34 = JCM 6841
Pseudomonas aeruginosa [21] = experiment: Antimicrobial activity against Pseudomonas aeruginosa BAA 2108 assessed as inhibition of visible growth incubated for 18 hrs; type: functional
Erythrocyte [22] = experiment: Toxicity in human erythrocytes assessed as induction of hemolysis at <50 ug/ml incubated for 1 hr by spectrometry; type: cell-based
Acinetobacter baumannii [23] = experiment: Antimicrobial activity against Acinetobacter baumannii ATCC 19606 assessed as inhibition of visible growth incubated for 18 hrs; type: functional
Bacillus subtilis [24] = experiment: Antimicrobial activity against Bacillus subtilis 168 assessed as inhibition of visible growth incubated for 18 hrs; type: functional
Bacillus subtilis [25] = experiment: Bactericidal activity against Bacillus subtilis 168; type: functional
Enterococcus faecium [26] = experiment: Antimicrobial activity against Enterococcus […] ATCC 29212 assessed as inhibition of visible growth incubated for 18 hrs; type: functional
Staphylococcus aureus [27] = experiment: Bactericidal activity against Staphylococcus aureus ATCC 29213; type: functional
Escherichia coli [28] = experiment: Antimicrobial activity against Escherichia coli ATCC 25923 assessed as inhibition of visible growth incubated for 18 hrs; type: functional
Enterococcus faecium [29] = experiment: Bactericidal activity against Enterococcus […] ATCC 29212; type: functional
Staphylococcus aureus [30] = experiment: Antimicrobial activity against Staphylococcus aureus ATCC 29213 assessed as inhibition of visible growth incubated for 18 hrs; type: functional
[31] = Toxicity in human erythrocytes assessed as induction of hemolysis at 16 ug/ml incubated for 1 hr by spectrometry; type: cell-based, Erythrocyte; settings: read-out: Activity
[32] = Stability in human plasma assessed as parent compound remaining at […] measured after 6 hrs by HPLC analysis; type: ADME, cell-free; settings: read-out: Stability

Molecule: CC[C@H](C)[C@@H]1NC(=O)CNC(=O)[C@H](CCCNC(=N)N)NC(=O)[C@H](Cc2ccc(O)cc2)NC(=O)[C@@H]2CSSC[C@H](NC1=O)C(=O)N[C@@H](Cc1ccc(O)cc1)C(=O)N[C@@H](CCCNC(=N)N)C(=O)N[C@@H](CCCNC(=N)N)C(=O)N[C@H](C(=O)N[C@@H](CCCNC(=N)N)C(N)=O)CSSC[C@H](NC(=O)[C@H](Cc1c[nH]c3ccccc13)NC(=O)[C@@H](N)CCCCN)C(=O)N[C@@H](Cc1ccccc1)C(=O)N[C@@H](CCCNC(=N)N)C(=O)N[C@@H](C(C)C)C(=O)N2
MIC (Klebsiella pneumoniae [1]; BAA 2470, 18 h): 16 µg/mL (≈ 7.07 µM)
MIC (Escherichia coli [2]; K-12, 18 h): 4 µg/mL (≈ 1.77 µM)
MIC (Escherichia coli [3]; BAA 2469, 18 h): 8 µg/mL (≈ 3.53 µM)
MIC (Enterobacter cloacae; BAA 1143, 18 h): 8 µg/mL (≈ 3.53 µM)
MIC (Staphylococcus aureus [4]; BAA 44, 18 h): 4 µg/mL (≈ 1.77 µM)
MHC (Erythrocyte [5]): 0.25 µg/mL
MIC (Staphylococcus aureus [6]; BAA 41, 18 h): 4 µg/mL (≈ 1.77 µM)
Activity (Erythrocyte [7]): Dose-dependent effect
metabolised at 6 h [8]: 100%
MIC (Klebsiella pneumoniae [9]; BAA 1144, 18 h): 8 µg/mL (≈ 3.53 µM)
Activity (L02 [10]): Toxic
MBC [11]: 16 to 64 µg/mL (≈ 7.07 to 28.3 µM)
Activity (L02 [12]): Non-Toxic
Activity (Lysobacter enzymogenes [13]): Dose-dependent effect
MBC (Escherichia coli [14]): 16 to 64 µg/mL (≈ 7.07 to 28.3 µM)
Activity (Lysobacter enzymogenes [15]): inactive
fold change (FC) [16]: 2
remaining at 2 h [17]: 20%
MBC (Shigella flexneri): 16 to 64 µg/mL (≈ 7.07 to 28.3 µM)
MIC (Pseudomonas aeruginosa [18]; ATCC 27853, 18 h): 4 to 8 µg/mL (≈ 1.77 to 3.53 µM)
MBC (Pseudomonas aeruginosa [19]): 16 to 64 µg/mL (≈ 7.07 to 28.3 µM)
MBC (Acinetobacter baumannii [20]): 16 to 64 µg/mL (≈ 7.07 to 28.3 µM)
MIC (Pseudomonas aeruginosa [21]; BAA 2108, 18 h): 8 µg/mL (≈ 3.53 µM)
Activity (Erythrocyte [22]): Toxic
MIC (Acinetobacter baumannii [23]; ATCC 19606 = CIP 70.34 = JCM 6841, 18 h): 8 to 16 µg/mL (≈ 3.53 to 7.07 µM)
MIC (Bacillus subtilis [24]; Bacillus subtilis, 168, 18 h): 4 µg/mL (≈ 1.77 µM)
MBC (Bacillus subtilis [25]): 16 to 64 µg/mL (≈ 7.07 to 28.3 µM)
MIC (Enterococcus faecium [26]; ATCC 29212, 18 h): 8 µg/mL (≈ 3.53 µM)
MBC (Staphylococcus aureus [27]): 16 to 64 µg/mL (≈ 7.07 to 28.3 µM)
MIC (Escherichia coli [28]; ATCC 25923, 18 h): 2 to 4 µg/mL (≈ 0.883 to 1.77 µM)
MBC (Enterococcus faecium [29]): 16 to 64 µg/mL (≈ 7.07 to 28.3 µM)
MIC (Staphylococcus aureus [30]; ATCC 29213, 18 h): 8 µg/mL (≈ 3.53 µM)

Molecule: CC[C@@H](C)[C@H]1NC(=O)CNC(=O)[C@@H](CCCNC(=N)N)NC(=O)[C@@H](Cc2ccc(O)cc2)NC(=O)[C@H]2CSSC[C@@H](NC1=O)C(=O)N[C@H](Cc1ccc(O)cc1)C(=O)N[C@H](CCCNC(=N)N)C(=O)N[C@H](CCCNC(=N)N)C(=O)N[C@@H](C(=O)N[C@H](CCCNC(=N)N)C(N)=O)CSSC[C@@H](NC(=O)[C@@H](Cc1c[nH]c3ccccc13)NC(=O)[C@H](N)CCCCN)C(=O)N[C@H](Cc1ccccc1)C(=O)N[C@H](CCCNC(=N)N)C(=O)N[C@H](C(C)C)C(=O)N2
hemolysis at 1 h, 16 ug/ml [31]: 10%
Activity (L02 [10]): Toxic
Activity (L02 [12]): Non-Toxic
remaining at 2 h [17]: > 80%
Activity (Erythrocyte [22]): Toxic
remaining at 6 h [32]: 20%

MIC (Klebsiella pneumoniae [1]): 2 µg/mL
MIC (Escherichia coli [2]): 2 µg/mL
MIC (Escherichia coli [3]): 2 µg/mL
MIC (Enterobacter cloacae): 4 µg/mL
MIC (Staphylococcus aureus [4]): > 128 µg/mL
MIC (Staphylococcus aureus [6]): > 128 µg/mL
MIC (Klebsiella pneumoniae [9]): 2 µg/mL
MIC (Pseudomonas aeruginosa [18]): 4 µg/mL
MIC (Pseudomonas aeruginosa [21]): 4 µg/mL
MIC (Acinetobacter baumannii [23]; ATCC 19606 = CIP 70.34 = JCM 6841): 4 µg/mL
MIC (Bacillus subtilis [24]): 16 µg/mL
MIC (Enterococcus faecium [26]): > 128 µg/mL
MIC (Escherichia coli [28]): 2 µg/mL
MIC (Staphylococcus aureus [30]): > 128 µg/mL
Molecule: COLISTIN
